Assay results from patent US6541502B1, “2-(aminomethyl)-tetrahydro-9-oxa-1,3-diaza-cyclopenta[a]-naphthalenyl derivatives with antipsychotic activity” (Wyeth, priority 2001, dated 2003).
Counter-ions that a name gives are not always drawn.

How the values were obtained:
dopamine autoreceptor = target: T1, dopamine autoreceptor (Rattus norvegicus, UniProt P61169); assay: [3H]-quinpirole binding, dopamine autoreceptor affinity (D2 Quin.); conditions: homogenized rat striatal brain tissue
T1 construct: homogenized rat striatal brain tissue; from tissue; host or cells: rat striatal brain tissue homogenate
Procedure: Affinity for the dopamine autoreceptor was established by a modification of the standard experimental test procedure of Seemen and Schaus, European Journal of Pharmacology 203: 105-109, 1991, wherein homogenized rat striatal brain tissue is incubated with [^3H]-quinpirole (Quin.) at various concentrations of test compound, filtered, washed and counted in a Betaplate scintillation counter.

dopamine D2 receptor = assay: [3H]-spiperidone binding, dopamine D2 receptor (D2 Spiper); conditions: ratio of D2 Spiper IC50 to D2 Quin. IC50 (LowAg/HighAg)
Procedure: High affinity for the dopamine D2 receptor was established by the standard experimental test procedure of Fields, et al., Brain Res., 136, 5789 (1977) and Yamamura et al., ed., Neurotransmitter Receptor Binding, Chapter 9, page 171, Raven Press, N.Y. (1978) wherein homogenized limbic brain tissue is incubated with [^3H]-spiperidone at various concentrations of test compound, filtered washed, and shaken with Hydrofluor scintillation cocktail (National Diagnostics) and counted in a Packard 460 CD scintillation counter.

T1 sequence (P61169 whole entry): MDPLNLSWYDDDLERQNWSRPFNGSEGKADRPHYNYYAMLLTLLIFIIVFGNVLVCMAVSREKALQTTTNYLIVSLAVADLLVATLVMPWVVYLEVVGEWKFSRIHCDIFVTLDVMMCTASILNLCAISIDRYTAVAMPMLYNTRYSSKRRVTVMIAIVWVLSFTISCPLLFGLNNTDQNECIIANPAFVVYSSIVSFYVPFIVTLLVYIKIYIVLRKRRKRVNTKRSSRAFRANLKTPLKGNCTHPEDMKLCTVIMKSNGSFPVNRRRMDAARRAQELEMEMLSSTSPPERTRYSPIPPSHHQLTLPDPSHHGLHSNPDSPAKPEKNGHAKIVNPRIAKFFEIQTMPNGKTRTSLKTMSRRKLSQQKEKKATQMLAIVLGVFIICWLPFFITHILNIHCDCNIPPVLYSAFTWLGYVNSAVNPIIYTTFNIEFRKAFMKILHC

| Structure (SMILES) | melting point [°C] | IC50 (dopamine autoreceptor) [nM] | Ratio (dopamine D2 receptor) |
| --- | --- | --- | --- |
| FC(F)(F)c1nc2ccc3c(c2[nH]1)OC(CNCc1ccccc1)CC3 (stereo not drawn) (as salt: oxalate) [Example 1, Benzyl-(2-trifluoromethyl-1,6,7,8-tetrahydro-9-oxa-1,3-diaza-cyclopenta[a]naphthalen-8-ylmethyl)-amine] | 244 | – | – |
| FC(F)(F)c1nc2ccc3c(c2[nH]1)OC(CNCc1ccccc1)CC3 (stereo not drawn) [Example 1, Benzyl-(2-trifluoromethyl-1,6,7,8-tetrahydro-9-oxa-1,3-diaza-cyclopenta[a]naphthalen-8-ylmethyl)-amine] | – | 11.5 | 75 |
